This test concerns the target Insulin-degrading enzyme (Homo sapiens) (UniProt P14735). Description: inhibitors of IDE decapeptide proteolysis, dose response, counter-screen for IDE exo-site inhibitor project, biochemical, kinetic mode (AID 1259348).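 For z-score: purified IDE bound to fluorescein-labelled 6b probe FL-6b at the exo-site; probe displacement lowers polarization so hits show a drop in FP signal.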 The following applies: purified human IDE, fluorogenic decapeptide proteolysis; for z-score: measured here: primary FP probe displacement screen, stronger effect = lower value. Background: A counterscreen serves to expose hits that act by an unwanted route or on another target.

In general, pIC50 refers to the negative decadic logarithm of the IC50, by convention in mol/L. The term IC50 denotes the concentration needed to halve the response being measured.

pIC50: −log10 of the molar value. Calls of active or inactive are those of the source.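 Rule for the calls: active = any compound with an IC50 of 100 nM or lower; inactive = the rest.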

Chain of Insulin-degrading enzyme (Homo sapiens) (P14735 42-1019 limits assumed): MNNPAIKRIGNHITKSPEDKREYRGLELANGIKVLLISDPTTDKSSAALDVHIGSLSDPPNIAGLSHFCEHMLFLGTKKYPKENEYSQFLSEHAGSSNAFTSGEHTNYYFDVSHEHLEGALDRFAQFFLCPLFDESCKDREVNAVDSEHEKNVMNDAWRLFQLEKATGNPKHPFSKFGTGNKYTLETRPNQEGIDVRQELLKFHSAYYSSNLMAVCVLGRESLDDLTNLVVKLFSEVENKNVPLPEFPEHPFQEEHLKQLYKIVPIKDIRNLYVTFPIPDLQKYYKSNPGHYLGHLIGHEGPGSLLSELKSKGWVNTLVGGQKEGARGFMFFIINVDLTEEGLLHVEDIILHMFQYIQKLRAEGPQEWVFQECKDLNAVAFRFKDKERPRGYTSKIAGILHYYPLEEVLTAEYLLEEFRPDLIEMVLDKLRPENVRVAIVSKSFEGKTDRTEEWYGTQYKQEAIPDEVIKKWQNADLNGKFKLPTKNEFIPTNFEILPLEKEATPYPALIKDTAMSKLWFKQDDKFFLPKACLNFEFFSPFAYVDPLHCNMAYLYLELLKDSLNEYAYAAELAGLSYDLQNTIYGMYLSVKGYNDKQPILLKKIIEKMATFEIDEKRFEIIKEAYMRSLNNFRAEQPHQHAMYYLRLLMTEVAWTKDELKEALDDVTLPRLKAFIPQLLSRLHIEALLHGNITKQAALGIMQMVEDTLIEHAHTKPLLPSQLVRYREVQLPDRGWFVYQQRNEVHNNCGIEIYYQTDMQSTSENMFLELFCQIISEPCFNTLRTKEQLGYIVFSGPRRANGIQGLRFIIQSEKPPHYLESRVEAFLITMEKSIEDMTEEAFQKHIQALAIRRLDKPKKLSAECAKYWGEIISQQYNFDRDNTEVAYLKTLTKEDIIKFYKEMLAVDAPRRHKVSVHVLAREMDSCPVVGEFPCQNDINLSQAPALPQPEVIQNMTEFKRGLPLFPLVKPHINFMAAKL

Regarding `O=C(c1ccccn1)N1CC(=O)N2[C@@H](CO)[C@@H](c3ccc(C#Cc4ccccc4)cc3)[C@@H]2C1`, the pIC50 is 5.28 and the z-score is -19.9.
The matching figures for `CCCNC(=O)N1CC(=O)N2[C@H](CO)[C@@H](c3ccc(-c4cccc(C)c4)cc3)[C@@H]2C1`: 6.11 and -22.4.
For `Cc1ccccc1-c1ccc([C@@H]2[C@H](CO)N3CCCCN(C(=O)Cc4ccccn4)C[C@@H]23)cc1`, the pIC50 is 5.31 and the z-score was -15.5.
Consider `Cc1ccccc1-c1ccc([C@H]2[C@@H](CO)N3CCCCN(C(=O)Nc4cccc(F)c4)C[C@@H]23)cc1`, for which the pIC50 is 5.42 and the z-score is -4.36.
For `Cc1ccccc1-c1ccc([C@@H]2[C@@H](CO)N3CCCCN(C(=O)Cc4ccccn4)C[C@@H]23)cc1`, in that order: 4.94 and -9.54.
Turning to `COc1ccccc1NC(=O)N1CCCCN2[C@H](CO)[C@@H](c3ccc(-c4cccc(C)c4)cc3)[C@@H]2C1`, the pIC50 is 5.12 and the z-score was -2.84.
For `CCCNC(=O)N1CC(=O)N2[C@@H](CO)[C@H](c3ccc(-c4cccc(C)c4)cc3)[C@@H]2C1`, in that order: 5.62 and -15.8.
The matching figures for `COc1ccccc1-c1ccc([C@H]2[C@@H](CO)N3CCCCN(C(=O)c4cccnc4)C[C@H]23)cc1`: 4.88 and -12.8.
`Cc1cccc(-c2ccc([C@@H]3[C@@H](CO)N4CCCCN(C(=O)c5ccc6c(c5)OCO6)C[C@@H]34)cc2)c1`: the IC50 is > 100 µM (inactive).
Consider `CO[C@H]1CN(C)C(=O)c2cc(NC(=O)c3ccc(Oc4ccccc4)cc3)ccc2OC[C@@H](C)NC[C@@H]1C`, for which the pIC50 is 5.54 and the z-score was -13.2.
The matching figures for `CO[C@@H]1CN(C)C(=O)c2cc(NC(=O)c3ccc(Oc4ccccc4)cc3)ccc2OC[C@@H](C)NC[C@@H]1C`: 5.62 and -11.5.
In the case of `CCC(=O)N1[C@H](CO)[C@H](c2ccc(-c3ccccc3OC)cc2)[C@H]1CNC(C)=O`, the pIC50 is 4.97 and the z-score is -8.24.
The matching figures for `Cc1ccccc1-c1ccc([C@H]2[C@@H](CO)N3C(=O)CN(C(=O)c4cccnc4)C[C@H]23)cc1`: 5.70 and -17.2.
For `Cc1ccccc1-c1ccc([C@H]2[C@H](CO)N3C(=O)CN(C(=O)Nc4cccc(F)c4)C[C@@H]23)cc1`, in that order: 5.40 and -3.03.
On to `Cc1ccccc1-c1ccc([C@H]2[C@@H](CO)N3CCCCN(S(=O)(=O)c4cn(C)cn4)C[C@@H]23)cc1`, for which the IC50 was > 100 µM (inactive) and the z-score was -3.44.
Take `OC[C@H]1[C@@H](c2ccc(C#Cc3ccccc3)cc2)[C@@H]2CN(Cc3cncnc3)CCCCN12`: the pIC50 was 5.37 and the z-score was -16.2.
The matching figures for `CC(=O)N1CCCCN2[C@H](CO)[C@@H](c3ccc(-c4cccc(C)c4)cc3)[C@@H]2C1`: 4.78 and -3.48.
On to `Cc1ccccc1-c1ccc([C@@H]2[C@@H](CO)N3CCCCN(C(=O)c4cccnc4)C[C@@H]23)cc1`, for which the pIC50 is 4.89 and the z-score is -7.98.
The matching figures for `Cc1cccc(-c2ccc([C@@H]3[C@@H](CO)N4CCCCN(CCC(F)(F)F)C[C@@H]34)cc2)c1`: 4.15 and -0.68.
On to `COc1ccccc1C#Cc1ccc([C@H]2[C@H]3CN(C(=O)C4CCC4)CCCCN3[C@H]2CO)cc1`, for which the IC50 is > 100 µM (inactive) and the z-score was -17.5.
As for `Cc1ccccc1-c1ccc([C@H]2[C@H](CO)N3C(=O)CN(C(=O)c4cccnc4)C[C@@H]23)cc1`, the pIC50 is 5.21 and the z-score is -12.4.
For `Cc1ccccc1-c1ccc([C@H]2[C@@H](CO)N3C(=O)CN(C(=O)Cc4ccccn4)C[C@@H]23)cc1`, in that order: 5.49 and -17.3.
The matching figures for `COc1ccccc1-c1ccc([C@@H]2[C@@H](C#N)N(C(=O)CN(C)C)[C@H]2CO)cc1`: 5.28 and -12.4.
For `CO[C@H]1CN(C)C(=O)c2cc(NC(=O)c3ccc(Oc4ccccc4)cc3)ccc2OC[C@H](C)NC[C@H]1C`, in that order: 5.55 and -14.2.
As to `Cc1cccc(-c2ccc([C@@H]3[C@H]4CN(C(=O)c5cccnc5)CCCCN4[C@H]3CO)cc2)c1`, the pIC50 is 5.18 and the z-score was -15.2.
The matching figures for `Cc1ccccc1-c1ccc([C@H]2[C@H](CO)N3C(=O)CN(C(=O)NC4CCCC4)C[C@@H]23)cc1`: 6.43 and -20.8.
For `Cc1cccc(-c2ccc([C@H]3[C@H](CO)N4C(=O)CN(C(=O)NC5CCCCC5)C[C@@H]34)cc2)c1`, in that order: 5.49 and -16.3.
For `Cc1cccc(-c2ccc([C@@H]3[C@@H](CO)N4CCCCN(C(=O)c5cccnc5)C[C@@H]34)cc2)c1`, the IC50 was > 100 µM (inactive) and the z-score is -3.25.
Turning to `Cc1ccccc1-c1ccc([C@@H]2[C@H](CO)N3C(=O)CN(C(=O)NC4CCCC4)C[C@@H]23)cc1`, the pIC50 is 5.44 and the z-score is -8.13.
The matching figures for `Cc1ccccc1-c1ccc(C2[C@@H]3CN(C(=O)c4cnccn4)C[C@H]2N3)cc1` (some centres not stated): 5.70 and -20.
As for `Cc1ccccc1-c1ccc([C@H]2[C@H]3CN(C(=O)NC4CCCC4)CCCCN3[C@H]2CO)cc1`, the pIC50 was 5.25 and the z-score was -5.69.
For `CO[C@@H]1CN(C)C(=O)c2cc(NC(=O)c3ccc(Oc4ccccc4)cc3)ccc2OC[C@@H](C)NC[C@H]1C`, in that order: 5.60 and -13.5.
The matching figures for `Cc1cccc(-c2ccc([C@H]3[C@@H](CO)N4CCCCN(Cc5cccnc5)C[C@H]34)cc2)c1`: 4.97 and -6.79.
The matching figures for `Cc1cccc(-c2ccc([C@@H]3[C@@H](CO)N4C(=O)CN(C(=O)c5cnccn5)C[C@@H]34)cc2)c1`: 5.30 and -17.5.
On to `Cc1ccccc1-c1ccc(C2[C@@H]3CN(S(=O)(=O)c4cn(C)cn4)C[C@H]2N3)cc1` (some centres not stated), for which the pIC50 is 5.41 and the z-score is -16.6.
For `Cc1ccccc1-c1ccc([C@H]2[C@@H](CO)N3CCCCN(S(=O)(=O)c4cn(C)cn4)C[C@H]23)cc1`, in that order: 5.66 and -16.6.
For `COc1cccc(C#Cc2ccc([C@@H]3[C@H](CO)N4C(=O)CN(C(=O)Cc5cccnc5)C[C@@H]34)cc2)c1`, in that order: 5.21 and -4.12.
The matching figures for `CCS(=O)(=O)N1CCCCN2[C@@H](CO)[C@@H](c3ccc(C#Cc4ccccc4OC)cc3)[C@@H]2C1`: 5.74 and -19.7.
As for `Cc1ccccc1-c1ccc([C@H]2[C@@H](CO)N3CCCCN(C(=O)Nc4ccccc4)C[C@@H]23)cc1`, the pIC50 is 5.54 and the z-score was -1.37.
For `Cc1ccccc1-c1ccc([C@H]2[C@@H](CO)N3CCCCN(C(=O)Cc4ccccn4)C[C@@H]23)cc1`, in that order: 4.30 and -5.7.
Turning to `COc1cccc(-c2ccc([C@@H]3[C@@H](CO)N4CCCCN(CC5CCOCC5)C[C@@H]34)cc2)c1`, the pIC50 was 4.52.
`Cc1cccc(-c2ccc([C@@H]3[C@@H](CO)N4CCCCN(S(=O)(=O)c5ccccc5C)C[C@@H]34)cc2)c1`: the pIC50 was 7.00 and the z-score was -20.3.
`O=C(NC1CCCC1)N1CCCCN2[C@H](C1)[C@H](c1ccc(/C=C/c3ccccc3)cc1)[C@@H]2CO`: the negative logarithm of the IC50 (pIC50) is 4.94 and the z-score was -13.2.
For `Cc1ccccc1-c1ccc([C@@H]2[C@@H](CO)N3CCCCN(C(=O)NC4CCCC4)C[C@H]23)cc1`, in that order: 5.44 and -14.5.
Consider `Cc1ccccc1-c1ccc([C@H]2[C@H]3CN(C(=O)NC4CCCC4)CC(=O)N3[C@H]2CO)cc1`, for which the pIC50 was 5.22 and the z-score was -12.4.
For the molecule `Cc1ccccc1-c1ccc([C@@H]2[C@@H](CO)N3CCCCN(C(=O)CN4CCOCC4)C[C@@H]23)cc1`, the pIC50 is 5.19 and the z-score was -8.
The matching figures for `Cc1cccc(-c2ccc([C@@H]3[C@@H](CO)N4CCCCN(Cc5cncnc5)C[C@@H]34)cc2)c1`: 4.92 and -6.65.
The matching figures for `Cc1ccccc1-c1ccc([C@H]2[C@@H](CO)N3CCCCN(C(=O)NC4CCCC4)C[C@@H]23)cc1`: 6.40 and -19.3.
The matching figures for `Cc1ccccc1-c1ccc([C@H]2[C@H](CO)N3C(=O)CN(C(=O)c4ccncc4)C[C@@H]23)cc1`: 5.35 and -7.39.
As for `Cc1ccccc1-c1ccc([C@@H]2[C@@H](CO)N3CCCCN(S(C)(=O)=O)C[C@@H]23)cc1`, the pIC50 is 5.89 and the z-score was -17.9.
The matching figures for `Cc1ccccc1-c1ccc([C@H]2[C@H](CO)N3CCCCN(CC4CC4)C[C@@H]23)cc1`: 4.52 and -2.04.
The matching figures for `Cc1cccc(-c2ccc([C@@H]3[C@@H](CO)N4CCCCN(C(=O)c5ccncc5)C[C@@H]34)cc2)c1`: 4.78 and -3.14.
As for `Cc1ccccc1-c1ccc([C@@H]2[C@H]3CN(S(=O)(=O)c4cn(C)cn4)CCCCN3[C@H]2CO)cc1`, the pIC50 is 5.77 and the z-score is -18.5.
The matching figures for `COc1ccc(NC(=O)N2CCCCN3[C@H](CO)[C@H](c4ccc(-c5ccccc5C)cc4)[C@@H]3C2)cc1`: 5.47 and -0.82.
The matching figures for `Cc1ccccc1-c1ccc([C@@H]2[C@@H](CO)N3CCCCN(S(=O)(=O)c4ccc(F)cc4)C[C@@H]23)cc1`: 6.47 and -17.5.
For `COCC(=O)N1CCCCN2[C@H](CO)[C@@H](c3ccc(-c4cccc(C)c4)cc3)[C@@H]2C1`, in that order: 4.80 and -5.29.
Turning to `Cc1ccccc1-c1ccc([C@H]2[C@@H](CO)N3CCCCN(Cc4cccnc4)C[C@H]23)cc1`, the pIC50 was 5.32 and the z-score was -11.4.

Source of the values: PubChem BioAssay AID1259348 (Broad Institute, 2017).
